Source: patent publication US8802597B2, “Herbicidal pyrimidines” (E I du Pont de Nemours and Company, priority 2003, dated 2014)
Read-outs that look alike come from different tables or passages of the source.

What was measured:
Experiment in all cases: Test C pre/postemergence
Type in all cases: in vivo
[1] = system: crabgrass (Digitaria sanguinalis); conditions: Digitaria sanguinalis; for pest or weed control at 31 g/ha: 31 g ai/ha; for pest or weed control at 62 g/ha: 62 g ai/ha; for pest or weed control at 125 g/ha: 125 g ai/ha; for pest or weed control at 250 g/ha: 250 g ai/ha
Method in brief: (§1)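 Greenhouse pot test: seeds treated preemergence, or plants at 2–18 cm (1- to 4-leaf stage) treated postemergence, with compound in non-phytotoxic solvent plus surfactant. Visual rating versus untreated controls after 12–14 days, scale 0 (no effect) to 100 (complete control); dash means not tested.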

[2] = system: kochia (Kochia scoparia); conditions: Bassia scoparia; for pest or weed control at 31 g/ha: 31 g ai/ha; for pest or weed control at 62 g/ha: 62 g ai/ha; for pest or weed control at 125 g/ha: 125 g ai/ha; for pest or weed control at 250 g/ha: 250 g ai/ha
Method in brief: as §1

[3] = system: cocklebur (Xanthium strumarium); conditions: Xanthium strumarium; for pest or weed control at 31 g/ha: 31 g ai/ha; for pest or weed control at 62 g/ha: 62 g ai/ha; for pest or weed control at 125 g/ha: 125 g ai/ha; for pest or weed control at 250 g/ha: 250 g ai/ha
Method in brief: as §1

[4] = system: giant foxtail (Setaria faberii); conditions: Setaria faberi; for pest or weed control at 125 g/ha: 125 g ai/ha; for pest or weed control at 31 g/ha: 31 g ai/ha; for pest or weed control at 62 g/ha: 62 g ai/ha; for pest or weed control at 250 g/ha: 250 g ai/ha
Method in brief: as §1

[5] = system: morningglory (Ipomoea coccinea); conditions: Ipomoea; for pest or weed control at 31 g/ha: 31 g ai/ha; for pest or weed control at 62 g/ha: 62 g ai/ha; for pest or weed control at 125 g/ha: 125 g ai/ha; for pest or weed control at 250 g/ha: 250 g ai/ha
Method in brief: as §1

[6] = system: eastern black nightshade (Solanum ptycanthum); conditions: Solanum, pre-emergence, Preemergence, read-out: Plant response rating, Nightshade
Method in brief: as §1

[7] = post-emergence, Postemergence, scale 0 to 100 (0 no effect, 100 complete control), read-out: Crabgrass plant response rating
[8] = pre-emergence, Preemergence, scale 0 to 100, 0 no effect, 100 complete control, read-out: Plant response rating, Crabgrass
[9] = pre-emergence, Preemergence, scale 0 to 100, read-out: Plant response rating, Crabgrass
[10] = post-emergence, Postemergence, scale 0 to 100 (0 no effect, 100 complete control), read-out: Kochia plant response rating
[11] = pre-emergence, Preemergence, scale 0 to 100, 0 no effect, 100 complete control, read-out: Plant response rating, Kochia
[12] = pre-emergence, Preemergence, scale 0 to 100, read-out: Plant response rating, Kochia
[13] = post-emergence, Postemergence, scale 0 to 100 (0 no effect, 100 complete control), read-out: Cocklebur plant response rating
[14] = pre-emergence, Preemergence, scale 0 to 100, 0 no effect, 100 complete control, read-out: Plant response rating, Cocklebur
[15] = pre-emergence, Preemergence, scale 0 to 100, read-out: Plant response rating, Cocklebur
[16] = post-emergence, Postemergence, scale 0 to 100 (0 no effect, 100 complete control), read-out: Foxtail, Giant plant response rating
[17] = pre-emergence, Preemergence, scale 0 to 100, 0 no effect, 100 complete control, read-out: Plant response rating, Foxtail, Giant
[18] = pre-emergence, Preemergence, scale 0 to 100, read-out: Plant response rating, Foxtail, Giant
[19] = post-emergence, Postemergence, scale 0 to 100 (0 no effect, 100 complete control), read-out: Morningglory plant response rating
[20] = pre-emergence, Preemergence, scale 0 to 100, 0 no effect, 100 complete control, read-out: Plant response rating, Morningglory
[21] = pre-emergence, Preemergence, scale 0 to 100, read-out: Plant response rating, Morningglory

CCOC(=O)c1nc(C2CC2)nc(N)c1F [Compound 30]
pest or weed control at 31 g/ha ([1]; post-emergence, Postemergence, read-out: Plant response rating (scale of 0 to 100), Crabgrass): 0% | pest or weed control at 62 g/ha [1, 7]: 0% | pest or weed control at 125 g/ha [1, 7]: 5% | pest or weed control at 250 g/ha ([1]; post-emergence, Postemergence, scale 0 to 100, read-out: Plant response rating, Crabgrass): 50% | pest or weed control at 31 g/ha [1, 8]: 0% | pest or weed control at 62 g/ha [1, 8]: 0% | pest or weed control at 125 g/ha [1, 9]: 70% | pest or weed control at 250 g/ha [1, 9]: 85% | pest or weed control at 31 g/ha ([2]; post-emergence, Postemergence, read-out: Plant response rating (scale of 0 to 100), Kochia): 55% | pest or weed control at 62 g/ha [2, 10]: 90% | pest or weed control at 125 g/ha [2, 10]: 100% | pest or weed control at 250 g/ha ([2]; post-emergence, Postemergence, scale 0 to 100, read-out: Plant response rating, Kochia): 100% | pest or weed control at 31 g/ha [2, 11]: 50% | pest or weed control at 62 g/ha [2, 11]: 70% | pest or weed control at 125 g/ha [2, 12]: 70% | pest or weed control at 250 g/ha [2, 12]: 90% | pest or weed control at 31 g/ha ([3]; post-emergence, Postemergence, read-out: Plant response rating (scale of 0 to 100), Cocklebur): 90% | pest or weed control at 62 g/ha [3, 13]: 95% | pest or weed control at 125 g/ha [3, 13]: 100% | pest or weed control at 250 g/ha ([3]; post-emergence, Postemergence, scale 0 to 100, read-out: Plant response rating, Cocklebur): 100% | pest or weed control at 31 g/ha [3, 14]: 0% | pest or weed control at 62 g/ha [3, 14]: 60% | pest or weed control at 125 g/ha [3, 15]: 85% | pest or weed control at 250 g/ha [3, 15]: 90% | pest or weed control at 125 g/ha [4, 16]: 0% | pest or weed control at 31 g/ha ([4]; post-emergence, Postemergence, read-out: Plant response rating (scale of 0 to 100), Foxtail, Giant): 0% | pest or weed control at 62 g/ha [4, 16]: 0% | pest or weed control at 250 g/ha ([4]; post-emergence, Postemergence, scale 0 to 100, read-out: Plant response rating, Foxtail, Giant): 40% | pest or weed control at 31 g/ha [4, 17]: 0% | pest or weed control at 62 g/ha [4, 17]: 0% | pest or weed control at 125 g/ha [4, 18]: 20% | pest or weed control at 250 g/ha [4, 18]: 60% | pest or weed control at 31 g/ha ([5]; post-emergence, Postemergence, read-out: Plant response rating (scale of 0 to 100), Morningglory): 90% | pest or weed control at 62 g/ha [5, 19]: 90% | pest or weed control at 125 g/ha [5, 19]: 95% | pest or weed control at 250 g/ha ([5]; post-emergence, Postemergence, scale 0 to 100, read-out: Plant response rating, Morningglory): 95% | pest or weed control at 31 g/ha [5, 20]: 0% | pest or weed control at 62 g/ha [5, 20]: 85% | pest or weed control at 125 g/ha [5, 21]: 90% | pest or weed control at 250 g/ha [5, 21]: 100% | pest or weed control at 31 g/ha ([6]; 31 g ai/ha, scale 0 to 100, 0 no effect, 100 complete control): 50% | pest or weed control at 62 g/ha ([6]; 62 g ai/ha, scale 0 to 100, 0 no effect, 100 complete control): 80% | pest or weed control at 125 g/ha ([6]; 125 g ai/ha, scale 0 to 100): 100% | pest or weed control at 250 g/ha ([6]; 250 g ai/ha, scale 0 to 100): 100%
